{"source": "PubChem BioAssay (NCI)", "note": "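Step 1: Grow cells in 96-well plates. Step 2: Expose to compound for 48 hours at 5 concentrations. Step 3: Interpolate endpoints linearly; if unreached, use highest concentration. Definition used: TGI = concentration required for complete inhibition of growth.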"}
{"tested_on": "A549 NSCLC", "experiment": "NCI tumour cell line growth inhibition, 48 h", "units": {"TGI": "µM"}}
{"smiles": "Cn1c2c(c3ccccc31)CCN1C(=O)CN(C(=O)C3CCCCC3)CC21", "note": "(configuration not stated)", "TGI": "> 100"}
{"smiles": "CCOC(=O)c1nc2cc(F)c(N3CCOCC3)cc2[nH]c1=O", "TGI": "> 100"}
{"smiles": "CCCC(=O)N1CCN(c2ccc3c(c2)OC(C)O3)CC1", "note": "(configuration not stated)", "TGI": "> 100"}
{"smiles": "COC(=O)C1=C(O)c2ccc(Cl)cc2S(=O)(=O)N1C", "TGI": "> 100"}
{"smiles": "C=C(Nc1nc2ccc(C)cc2s1)C(=O)C(CC)C(=O)C(CC)CC1C(=O)NC(=O)NC1=O", "note": "(configuration not stated)", "TGI": "> 100"}
{"smiles": "CCOC(=O)[C@H](C)OC(=O)[C@@](C)(NC(=O)c1ccccc1C(=O)OC)[C@@H]1NC=C(C(=O)OC)CS1", "TGI": "> 100"}
{"smiles": "Cn1c2ccccc2c(=O)c2cccc(C(=O)NC(CS)C(=O)O)c21", "note": "(configuration not stated)", "TGI": "> 100"}
{"smiles": "COc1ccc(N=NC(=O)NC(CC(C)C)C(=O)NC(C)C(=O)O)cc1", "note": "(configuration not stated)", "TGI": "> 51.2"}
{"smiles": "CC(=O)OCC1OC(n2c(C)cc(C)c(C#N)c2=S)C(OC(C)=O)C(OC(C)=O)C1OC(C)=O", "note": "(configuration not stated)", "TGI": "> 100"}
{"smiles": "COC(=O)NC(C(F)(F)F)(C(F)(F)F)P1(=O)OCCCO1", "TGI": "> 100"}
{"smiles": "CCOC(=O)NNC(=O)NCCCCNC(=O)NNC(=O)OCC", "TGI": "> 100"}
{"smiles": "COC(=O)c1nsc(OC)c1Cl", "TGI": "> 100"}
{"smiles": "Cc1c2cccc-2c(OCCO)cc2c3ccccc3n(C)c12", "TGI": 15.5}
{"smiles": "c1ccc2c(c1)SCCC2NC1=NCCO1", "note": "(configuration not stated)", "TGI": "> 100"}
{"smiles": "C=CCN(C(=O)CNC(=O)C(F)(F)F)c1cc(OCc2ccccc2)c2c(c1)c(C)cn2S(=O)(=O)c1ccccc1", "TGI": "> 100"}
{"smiles": "COC1=C(Br)[C@H](O)[C@@]2(C=C1Br)CC(C(=O)NCCCOc1c(Br)cc(C(O)CNC(C)=O)cc1Br)=NO2", "note": "(some centres not stated)", "TGI": "> 10"}
{"smiles": "COc1ccc(C[C@H]2COC(=O)[C@@H]2Cc2cccc(Br)c2)cc1OC", "TGI": "> 100"}
{"smiles": "CSc1ccsc1-c1sc(-c2cc(SC)c(-c3sc(-c4cc(SC)c(-c5sccc5SC)s4)cc3SC)s2)cc1SC", "TGI": "> 100"}
{"smiles": "COc1cccc(C2c3cc4c(cc3OC(C)(N3CCCC3)C2C)OCO4)c1", "note": "(configuration not stated)", "TGI": 32.1}
{"smiles": "CCSC1=N/C(=C\\c2ccc(N(C)C)cc2)C(Cl)=N1", "TGI": "> 100"}
{"smiles": "COC1(OC)CCCc2c1no[n+]2[O-]", "TGI": "> 100"}
{"smiles": "CC1=C(/C=C/C(C)=C/C=C/C(C)=C/C(=O)OC2CC(n3cc(F)c(=O)[nH]c3=O)OC2CO)C(C)(C)CCC1", "note": "(configuration not stated)", "TGI": 17.6}
{"smiles": "CC(C)C(C/C=C1\\CC(CO)(COC(=O)C(C)(C)C)OC1=O)C(C)C", "note": "(configuration not stated)", "TGI": 16.6}
{"smiles": "O=C1C=C(NCCOCCO)C(=O)c2c(O)ccc(O)c21", "TGI": 73.6}
{"tested_on": "HOP-92 NSCLC", "experiment": "NCI tumour cell line growth inhibition, 48 h", "units": {"TGI": "µM"}}
{"smiles": "Cn1c2c(c3ccccc31)CCN1C(=O)CN(C(=O)C3CCCCC3)CC21", "note": "(configuration not stated)", "TGI": "> 100"}
{"smiles": "CCOC(=O)c1nc2cc(F)c(N3CCOCC3)cc2[nH]c1=O", "TGI": "> 100"}
{"smiles": "CCCC(=O)N1CCN(c2ccc3c(c2)OC(C)O3)CC1", "note": "(configuration not stated)", "TGI": "> 100"}
{"smiles": "COC(=O)C1=C(O)c2ccc(Cl)cc2S(=O)(=O)N1C", "TGI": "> 100"}
{"smiles": "C=C(Nc1nc2ccc(C)cc2s1)C(=O)C(CC)C(=O)C(CC)CC1C(=O)NC(=O)NC1=O", "note": "(configuration not stated)", "TGI": "> 100"}
{"smiles": "COc1ccc(N=NC(=O)NC(CC(C)C)C(=O)NC(C)C(=O)O)cc1", "note": "(configuration not stated)", "TGI": "> 100"}
{"smiles": "CC(=O)OCC1OC(n2c(C)cc(C)c(C#N)c2=S)C(OC(C)=O)C(OC(C)=O)C1OC(C)=O", "note": "(configuration not stated)", "TGI": "> 100"}
{"smiles": "COC(=O)NC(C(F)(F)F)(C(F)(F)F)P1(=O)OCCCO1", "TGI": "> 100"}
{"smiles": "CCOC(=O)NNC(=O)NCCCCNC(=O)NNC(=O)OCC", "TGI": "> 100"}
{"smiles": "Cc1c2cccc-2c(OCCO)cc2c3ccccc3n(C)c12", "TGI": 6.13}
{"smiles": "C=CCN(C(=O)CNC(=O)C(F)(F)F)c1cc(OCc2ccccc2)c2c(c1)c(C)cn2S(=O)(=O)c1ccccc1", "TGI": "> 100"}
{"smiles": "COc1ccc(C[C@H]2COC(=O)[C@@H]2Cc2cccc(Br)c2)cc1OC", "TGI": 48.3}
{"smiles": "CSc1ccsc1-c1sc(-c2cc(SC)c(-c3sc(-c4cc(SC)c(-c5sccc5SC)s4)cc3SC)s2)cc1SC", "TGI": "> 100"}
{"smiles": "COc1cccc(C2c3cc4c(cc3OC(C)(N3CCCC3)C2C)OCO4)c1", "note": "(configuration not stated)", "TGI": 42.2}
{"smiles": "CCSC1=N/C(=C\\c2ccc(N(C)C)cc2)C(Cl)=N1", "TGI": "> 100"}
{"smiles": "CC1=C(/C=C/C(C)=C/C=C/C(C)=C/C(=O)OC2CC(n3cc(F)c(=O)[nH]c3=O)OC2CO)C(C)(C)CCC1", "note": "(configuration not stated)", "TGI": 36.7}
{"smiles": "CC(C)C(C/C=C1\\CC(CO)(COC(=O)C(C)(C)C)OC1=O)C(C)C", "note": "(configuration not stated)", "TGI": 25}
{"smiles": "O=C1C=C(NCCOCCO)C(=O)c2c(O)ccc(O)c21", "TGI": 51.3}
{"smiles": "CC(C)[Si]1(C(C)C)OCC2OC3(CO)C(Oc4nc(=O)ccn43)C2O[Si](C(C)C)(C(C)C)O1", "note": "(configuration not stated)", "TGI": 32.2}
{"tested_on": "SK-OV-3 ovarian", "experiment": "NCI tumour cell line growth inhibition, 48 h", "units": {"TGI": "µM"}}
{"smiles": "Cn1c2c(c3ccccc31)CCN1C(=O)CN(C(=O)C3CCCCC3)CC21", "note": "(configuration not stated)", "TGI": "> 100"}
{"smiles": "CCOC(=O)c1nc2cc(F)c(N3CCOCC3)cc2[nH]c1=O", "TGI": "> 100"}
{"smiles": "CCCC(=O)N1CCN(c2ccc3c(c2)OC(C)O3)CC1", "note": "(configuration not stated)", "TGI": "> 100"}
{"smiles": "COC(=O)C1=C(O)c2ccc(Cl)cc2S(=O)(=O)N1C", "TGI": "> 100"}
{"smiles": "C=C(Nc1nc2ccc(C)cc2s1)C(=O)C(CC)C(=O)C(CC)CC1C(=O)NC(=O)NC1=O", "note": "(configuration not stated)", "TGI": "> 100"}
{"smiles": "CCOC(=O)[C@H](C)OC(=O)[C@@](C)(NC(=O)c1ccccc1C(=O)OC)[C@@H]1NC=C(C(=O)OC)CS1", "TGI": "> 100"}
{"smiles": "Cn1c2ccccc2c(=O)c2cccc(C(=O)NC(CS)C(=O)O)c21", "note": "(configuration not stated)", "TGI": "> 100"}
{"smiles": "COC(=O)NC(C(F)(F)F)(C(F)(F)F)P1(=O)OCCCO1", "TGI": 55.7}
{"smiles": "CCOC(=O)NNC(=O)NCCCCNC(=O)NNC(=O)OCC", "TGI": "> 100"}
{"smiles": "COC(=O)c1nsc(OC)c1Cl", "TGI": "> 100"}
{"smiles": "Cc1c2cccc-2c(OCCO)cc2c3ccccc3n(C)c12", "TGI": 7.34}
{"smiles": "c1ccc2c(c1)SCCC2NC1=NCCO1", "note": "(configuration not stated)", "TGI": "> 100"}
{"smiles": "C=CCN(C(=O)CNC(=O)C(F)(F)F)c1cc(OCc2ccccc2)c2c(c1)c(C)cn2S(=O)(=O)c1ccccc1", "TGI": "> 100"}
{"smiles": "COC1=C(Br)[C@H](O)[C@@]2(C=C1Br)CC(C(=O)NCCCOc1c(Br)cc(C(O)CNC(C)=O)cc1Br)=NO2", "note": "(some centres not stated)", "TGI": "> 10"}
